This note sets out measurements from ChEMBL document CHEMBL1149965, “Synthesis and biological evaluation of conformationally constrained bicyclic and tricyclic balanol analogues as inhibitors of protein kinase C” (Bioorg Med Chem Lett, 1995).

By IC50 is commonly meant the concentration at which inhibition is half-maximal. Low values mean greater potency, high ones weaker potency.

Assay [1] addresses Protein kinase C delta type (Homo sapiens, UniProt Q05655). As to the kind of experiment: Inhibition of Protein kinase C delta.
Assay [2] has as its target cAMP-dependent protein kinase (PKA) (Homo sapiens, UniProt P22694+P17612+P22612). As to the kind of experiment: Inhibition of Protein Kinase A. Type of assay: protein assay.
The target of assay [3] is T1, Protein kinase C beta type (Homo sapiens, UniProt P05771). As to the kind of experiment: Inhibition of Protein kinase C beta 1.
T1 sequence (P05771 whole entry): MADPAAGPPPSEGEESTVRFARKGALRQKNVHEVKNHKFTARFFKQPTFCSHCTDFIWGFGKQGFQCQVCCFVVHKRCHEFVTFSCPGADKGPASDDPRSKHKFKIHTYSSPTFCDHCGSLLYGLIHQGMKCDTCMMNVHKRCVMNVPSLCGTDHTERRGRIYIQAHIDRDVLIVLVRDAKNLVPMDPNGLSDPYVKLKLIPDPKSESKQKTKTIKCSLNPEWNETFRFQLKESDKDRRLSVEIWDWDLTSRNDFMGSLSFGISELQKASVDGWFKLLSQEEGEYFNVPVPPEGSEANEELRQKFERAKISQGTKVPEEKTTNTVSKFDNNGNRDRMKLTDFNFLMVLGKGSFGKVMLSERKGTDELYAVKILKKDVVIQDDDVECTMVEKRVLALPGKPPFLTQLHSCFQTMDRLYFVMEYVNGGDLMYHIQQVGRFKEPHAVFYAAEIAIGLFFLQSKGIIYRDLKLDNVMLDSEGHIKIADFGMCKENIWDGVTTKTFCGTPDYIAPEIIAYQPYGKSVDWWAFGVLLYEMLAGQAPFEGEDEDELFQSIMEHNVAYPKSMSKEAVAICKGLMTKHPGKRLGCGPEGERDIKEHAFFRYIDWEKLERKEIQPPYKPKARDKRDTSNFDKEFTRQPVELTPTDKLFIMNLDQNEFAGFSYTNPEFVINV
Assay [4] deals with T1, Protein kinase C beta type. As to the kind of experiment: Inhibition of Protein kinase C beta 2.
In assay [5] the target is T2, Protein kinase C zeta type (Homo sapiens, UniProt Q05513).
T2 sequence (Q05513 whole entry): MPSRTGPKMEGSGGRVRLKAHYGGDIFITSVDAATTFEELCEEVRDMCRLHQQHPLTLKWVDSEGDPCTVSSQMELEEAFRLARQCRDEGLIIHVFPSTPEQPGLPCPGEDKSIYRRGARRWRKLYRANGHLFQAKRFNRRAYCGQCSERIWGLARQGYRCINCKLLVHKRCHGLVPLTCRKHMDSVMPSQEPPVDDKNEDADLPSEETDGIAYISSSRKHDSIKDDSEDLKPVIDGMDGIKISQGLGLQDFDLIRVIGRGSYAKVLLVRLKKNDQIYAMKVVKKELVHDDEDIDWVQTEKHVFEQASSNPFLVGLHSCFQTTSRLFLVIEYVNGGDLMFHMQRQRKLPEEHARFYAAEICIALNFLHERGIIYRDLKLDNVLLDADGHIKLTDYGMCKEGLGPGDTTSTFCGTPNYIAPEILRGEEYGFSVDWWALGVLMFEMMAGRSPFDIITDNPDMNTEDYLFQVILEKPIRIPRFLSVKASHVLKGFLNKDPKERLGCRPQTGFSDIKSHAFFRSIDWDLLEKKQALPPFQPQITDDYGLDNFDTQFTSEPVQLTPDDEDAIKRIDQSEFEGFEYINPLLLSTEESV
As to the kind of experiment: Inhibition of Protein kinase C zeta.

For assay [6], the target named is T3, Protein kinase C epsilon type (Homo sapiens, UniProt Q02156).
T3 sequence (Q02156 whole entry): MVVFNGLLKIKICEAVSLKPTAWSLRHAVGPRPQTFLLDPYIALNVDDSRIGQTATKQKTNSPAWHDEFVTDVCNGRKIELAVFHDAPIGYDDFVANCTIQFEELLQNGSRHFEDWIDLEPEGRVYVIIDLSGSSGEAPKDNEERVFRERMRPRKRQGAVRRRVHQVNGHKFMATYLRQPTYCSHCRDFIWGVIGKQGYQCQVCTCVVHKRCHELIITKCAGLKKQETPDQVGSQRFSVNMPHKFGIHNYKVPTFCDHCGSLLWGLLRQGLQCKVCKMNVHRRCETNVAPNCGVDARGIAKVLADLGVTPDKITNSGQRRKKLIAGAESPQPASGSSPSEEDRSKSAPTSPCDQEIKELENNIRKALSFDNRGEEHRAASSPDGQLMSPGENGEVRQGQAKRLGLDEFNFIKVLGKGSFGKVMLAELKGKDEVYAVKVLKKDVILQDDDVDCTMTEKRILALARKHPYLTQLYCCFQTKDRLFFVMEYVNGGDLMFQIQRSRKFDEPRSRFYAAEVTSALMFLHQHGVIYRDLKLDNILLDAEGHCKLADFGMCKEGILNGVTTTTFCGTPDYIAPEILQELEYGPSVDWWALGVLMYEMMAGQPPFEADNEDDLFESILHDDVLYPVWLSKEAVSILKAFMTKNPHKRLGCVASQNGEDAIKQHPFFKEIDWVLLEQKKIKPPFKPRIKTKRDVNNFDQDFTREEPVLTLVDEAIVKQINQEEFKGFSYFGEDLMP
As to the kind of experiment: Inhibition of Protein kinase C epsilon.

Assay [7] concerns the target Protein kinase C gamma type (Homo sapiens, UniProt P05129). As to the kind of experiment: Inhibition Protein kinase C gamma.
The target of assay [8] is Protein kinase C eta type (Homo sapiens, UniProt P24723). As to the kind of experiment: Inhibition of Protein kinase C eta.
Chain of Protein kinase C eta type (P24723 whole entry): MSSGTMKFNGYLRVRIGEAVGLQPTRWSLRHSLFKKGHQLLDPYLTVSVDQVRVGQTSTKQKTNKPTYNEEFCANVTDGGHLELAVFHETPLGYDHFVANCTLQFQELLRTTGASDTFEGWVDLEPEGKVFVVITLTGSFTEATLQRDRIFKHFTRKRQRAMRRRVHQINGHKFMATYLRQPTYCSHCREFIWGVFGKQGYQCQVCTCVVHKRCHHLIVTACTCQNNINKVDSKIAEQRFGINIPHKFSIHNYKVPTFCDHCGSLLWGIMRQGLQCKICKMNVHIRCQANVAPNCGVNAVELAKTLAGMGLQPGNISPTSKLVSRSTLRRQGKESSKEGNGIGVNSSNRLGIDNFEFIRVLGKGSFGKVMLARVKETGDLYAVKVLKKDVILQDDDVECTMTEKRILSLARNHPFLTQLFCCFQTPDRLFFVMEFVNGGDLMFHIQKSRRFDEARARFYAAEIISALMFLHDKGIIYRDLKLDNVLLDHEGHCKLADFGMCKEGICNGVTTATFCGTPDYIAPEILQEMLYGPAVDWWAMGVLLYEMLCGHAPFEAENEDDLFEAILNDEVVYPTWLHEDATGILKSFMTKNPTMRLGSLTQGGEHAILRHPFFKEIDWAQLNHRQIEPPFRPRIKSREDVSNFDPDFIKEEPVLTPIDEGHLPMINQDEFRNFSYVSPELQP
For assay [9], the target named is Protein kinase C alpha type (Homo sapiens, UniProt P17252). As to the kind of experiment: Inhibition of Protein kinase C alpha.

Chain of Protein kinase C delta type (Q05655 whole entry): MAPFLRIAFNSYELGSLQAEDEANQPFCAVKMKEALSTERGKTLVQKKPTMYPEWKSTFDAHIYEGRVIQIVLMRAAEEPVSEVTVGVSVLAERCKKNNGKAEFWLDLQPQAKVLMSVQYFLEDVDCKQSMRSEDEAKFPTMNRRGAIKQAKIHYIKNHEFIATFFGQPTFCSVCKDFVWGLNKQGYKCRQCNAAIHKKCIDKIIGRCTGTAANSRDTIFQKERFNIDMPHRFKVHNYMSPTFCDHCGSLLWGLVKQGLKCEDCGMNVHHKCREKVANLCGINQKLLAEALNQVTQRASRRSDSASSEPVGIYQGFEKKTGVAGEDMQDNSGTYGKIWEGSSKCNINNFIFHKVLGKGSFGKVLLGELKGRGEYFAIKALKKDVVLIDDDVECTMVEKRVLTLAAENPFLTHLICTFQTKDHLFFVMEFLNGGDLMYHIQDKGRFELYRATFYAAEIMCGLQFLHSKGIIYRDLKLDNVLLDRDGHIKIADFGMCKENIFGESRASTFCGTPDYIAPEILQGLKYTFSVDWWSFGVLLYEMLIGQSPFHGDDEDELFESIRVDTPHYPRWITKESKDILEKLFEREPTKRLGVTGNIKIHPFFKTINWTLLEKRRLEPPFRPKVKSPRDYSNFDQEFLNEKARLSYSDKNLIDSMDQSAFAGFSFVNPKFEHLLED

With `CC1(C)C2CCC1(C)C(OC(=O)c1cc(O)c(C(=O)c3c(O)cccc3C(=O)O)c(O)c1)C2NC(=O)c1ccc(O)cc1` (stereo not drawn), the IC50 is 340 nM in assay [1]; 26000 nM in assay [2]; 310 nM in assay [3]; 80 nM in assay [4]; above 50000 nM in assay [5]; 3600 nM in [6]. Besides, the IC50 turned out to be 210 nM in assay [7], 310 nM in assay [8] and 410 nM in [9].
In the case of `O=C(N[C@@H]1CNCCCC1OC(=O)c1cc(O)c(C(=O)c2c(O)cccc2C(=O)O)c(O)c1)c1ccc(O)cc1` (mixture of isomers), the IC50 was found to be 32 nM in assay [1]; 32 nM in assay [3]; 44 nM in [4]; 3500 nM in assay [5]; 34 nM in assay [7]; 22 nM in assay [8]. The compound also returned an IC50 in assay [9] of 74 nM.
Consider `O=C(NC1CNC[C@@H]1OC(=O)c1cc(O)c(C(=O)c2c(O)cccc2C(=O)O)c(O)c1)c1ccc(O)cc1` (mixture of isomers), for which the IC50 was 5 nM in [1]; 70 nM in assay [2]; 17 nM in [3]; 33 nM in [4]; above 150 nM in assay [5]; 15 nM in assay [6]. The IC50 is 14 nM in assay [7], 4 nM in assay [8] and 22 nM in [9].
With `O=C(NC1CCC[C@@H]1OC(=O)c1cc(O)c(C(=O)c2c(O)cccc2C(=O)O)c(O)c1)c1ccc(O)cc1` (mixture of isomers), the IC50 worked out at 1 nM in assay [1]; 40 nM in [3]; 50 nM in assay [4]; 50 nM in assay [6]; 10 nM in assay [7]; 1 nM in [8]. In [9], this compound registered an IC50 of 40 nM.
Take `O=C(NC1C2CCC(C2)C1OC(=O)c1cc(O)c(C(=O)c2c(O)cccc2C(=O)O)c(O)c1)c1ccc(O)cc1` (racemic): the IC50 in assay [1] amounted to 20 nM; in assay [2] it was 1900 nM; in [3], 45 nM; in assay [4], 30 nM; in assay [6], 30 nM; in assay [7], 35 nM. For the same compound, the figures for the IC50 in [8] and in assay [9] were 20 nM and 55 nM, respectively.
Turning to `O=C(NC1C2CCC(C2)C1OC(=O)c1cc(O)c(C(=O)c2c(O)cccc2C(=O)O)c(O)c1)c1ccc(O)cc1` (stereo in doubt), the IC50 in assay [1] was 3500 nM; in assay [2], above 50000 nM; in assay [3], 17000 nM; in assay [4], 6900 nM; in assay [6] it was 1500 nM; in assay [7] it was 10000 nM. In addition, the IC50 in assay [8] came to 4500 nM; in [9] it was 24000 nM.
Consider `CN1C2CCC1C(NC(=O)c1ccc(O)cc1)C(OC(=O)c1cc(O)c(C(=O)c3c(O)cccc3C(=O)O)c(O)c1)C2` (stereo in doubt; anti), for which the IC50 in [1] was 5000 nM; in [2] it was above 50000 nM; in assay [3], 4400 nM; in [4], 14000 nM; in [5], above 50000 nM; in assay [6], 27000 nM. Further, the IC50 in [7] was 4600 nM; in assay [8] it was 2800 nM; in [9] it was 34000 nM.
As to `O=C(NC1CN2CCC(CC2)C1OC(=O)c1cc(O)c(C(=O)c2c(O)cccc2C(=O)O)c(O)c1)c1ccc(O)cc1` (stereo in doubt; anti), the IC50 in assay [1] stood at 112 nM; in [2] it was 2000 nM; in assay [3], 26 nM; in assay [4], 69 nM; in assay [6] it was 170 nM; in [7], 170 nM. Moreover, the IC50 is 26 nM in [8] and 415 nM in assay [9].
In the case of `O=C(NC1C2CC(C3CCCC32)C1OC(=O)c1cc(O)c(C(=O)c2c(O)cccc2C(=O)O)c(O)c1)c1ccc(O)cc1` (stereo in doubt; anti), the IC50 was determined as 50 nM in [1]; 32000 nM in assay [2]; 150 nM in [3]; 30 nM in assay [4]; 970 nM in assay [6]; 50 nM in assay [7]. Besides, the figures for the IC50 in [8] and in assay [9] were 50 nM and 100 nM, respectively.
Consider `CN1C2CCC1C(NC(=O)c1ccc(O)cc1)C(OC(=O)c1cc(O)c(C(=O)c3c(O)cccc3C(=O)O)c(O)c1)C2` (stereo in doubt; syn), for which the IC50 in assay [1] is 3800 nM; in assay [2], above 50000 nM; in assay [3], 22000 nM; in assay [4], 22000 nM; in assay [5], above 50000 nM; in [6] it was 49000 nM. Also, the IC50 came to 16000 nM in [7], 2500 nM in assay [8] and 35000 nM in assay [9].
Consider `O=C(NC1CN2CCC(CC2)C1OC(=O)c1cc(O)c(C(=O)c2c(O)cccc2C(=O)O)c(O)c1)c1ccc(O)cc1` (stereo in doubt; syn), for which the IC50 in [1] was 1000 nM; in [2], above 50000 nM; in assay [3], 6300 nM; in assay [4], 34000 nM; in assay [6] it was 14000 nM; in assay [7] it was 4600 nM. In addition, the IC50 came out at 490 nM in assay [8] and 12000 nM in [9].
As for `O=C(NC1C2CC(C3CCCC32)C1OC(=O)c1cc(O)c(C(=O)c2c(O)cccc2C(=O)O)c(O)c1)c1ccc(O)cc1` (stereo in doubt; syn), the IC50 in assay [1] was 2000 nM; in assay [2] it was above 50000 nM; in [3] it was 3300 nM; in assay [4], 2100 nM; in assay [6] it was 40000 nM; in assay [7], 1600 nM. The figures for the IC50 in assay [8] and in assay [9] were 1900 nM and 2700 nM, respectively.
